Patent US6964966B2, “Generation triple-targeting, chiral, broad-spectrum antimicrobial 7-substituted piperidino-quinolone carboxylic acid derivatives, their preparation, compositions and use as medicaments” (Wockhardt Limited, priority 2001, dated 2005)
≈ marks a conversion by molar mass, not a printed value. Read-outs that look alike come from different tables or passages of the source.

Columns and labels:
Format in all cases: cell-based
[1] = test system: Fluoroquinolone Sensitive Strains; test: In-vitro antimicrobial test, MIC by two-fold serial agar dilution (NCCLS): fluoroquinolone sensitive strains (Table 17)
Method: (§1) The test method was in accordance with the standard NCCLS protocol (Methods for Dilution Antimicrobial Susceptibility Tests for Bacteria that grow Aerobicially, Approved Standards, M7-A5, Fifth Edition, January 2000).
(§2) The antibacterial activities (minimum inhibitory concentration: MIC, mcg/ml) were determined by using the two-fold serial agar dilution method recommended by NCCLS. The media used for preculture and main culture were Tryptic Soya broth (Difco) and Mueller Hinton medium (Difco), respectively. The Mueller Hinton agar was supplemented with 5% sheep blood for streptococci. Overnight cultures were diluted with buffered saline (pH 7.2) to the final cell density of 5×10^6-10^7 CFU/ml, and each bacterial suspension was applied with a replicator (Denley's multipoint inoculator, UK) onto a series of Mueller-Hinton agar plates containing antibacterial agents at various concentrations. Final inoculum was approximately 10^4 CFU/spot. The plates were incubated for 18 hrs at 37° C. The MIC was defined as the lowest concentration of an antibacterial agent that inhibits the development of visible microbial growth on agar.

J 744 (mouse macrophage) = test: Cytotoxicity test (Alamar blue), J 744 cells (Table 23); conditions: minimum drug concentration inhibiting Alamar blue color change; 3 hrs drug exposure, then 96 hrs incubation; J 744 mouse macrophage cells
Method: (§3) Compounds were evaluated for their cytotoxic potential against two […] viz. […] Freshly grown cells were distributed in microtiter plates at a cell density of 10^5-10^6 cells/well and allowed to adhere and form monolayer by incubating the microtiter plate at 37° C. for 24 hrs. […] Following 3 hrs. of drug exposure, cells were washed with D-MEM and incubated further for 96 hrs. Cytotoxic effects of drugs were monitored through daily microscopic observation and by ascertaining the metabolic status through redox indicator Alamar blue. Healthy actively metabolising cells bring about colour change of Alamar blue from blue to pink within an overnight incubation. Cytotoxic drugs inhibit this reaction resulting into blue coloured wells. Minimum drug concentration inhibiting Alamar blue color change i.e. resulting into blue coloured wells for a given drug is considered cytotoxic concentration.

[2] = test system: V79 (Chinese Hamster Lung); test: Cytotoxicity test (Alamar blue), V79 cells (Table 23); conditions: minimum drug concentration inhibiting Alamar blue color change, 3 hrs drug exposure, then 96 hrs incubation
Method: as §3

[3] = test system: Fluoroquinolone-Resistant Strains; test: In-vitro antimicrobial test, MIC by agar dilution (NCCLS): fluoroquinolone-resistant strains (Table 18)
Method: as §1, §2

[4] = Escherichia coli, ATCC25922, E. coli ATCC 25922, read-out: MIC, E. coli ATCC 25922
[5] = Staphylococcus aureus, ATCC 25923 / MSSA, MSSA ATCC 25923, read-out: MIC, MSSA ATCC 25923
[6] = Streptococcus pneumoniae, ATCC49619, S. pneumoniae ATCC 49619, read-out: MIC, S. pneumoniae ATCC 49619

Structure (SMILES): CCNC1CCN(c2c(F)c(N)c3c(=O)c(C(=O)O)cn(C4CC4)c3c2OC)CC1(C)C (centres unmarked) [Compound 66, 5-Amino-1-cyclopropyl-6-fluoro-1,4-dihydro-8-methoxy-7-(4-ethylamino-3,3-dimethyl-1-piperidinyl)-4-oxo-quinoline-3-carboxylic acid]
- MIC [1, 4]: 0.2 µg/mL (≈ 0.448 µM)
- MIC [1, 5]: 0.05 µg/mL (≈ 0.112 µM)
- MIC [1, 6]: 0.2 µg/mL (≈ 0.448 µM)

Structure (SMILES): CCNC1C(C)CN(c2c(F)cc3c(=O)c(C(=O)O)cn(C4CC4)c3c2OC)CC1C (centres unmarked) [Compound 39, 1-Cyclopropyl-6-fluoro-1,4-dihydro-8-methoxy-7-(4-ethylamino-3,5-dimethyl-1-piperidinyl)-4-oxo-quinoline-3-carboxylic acid]
- MIC [1, 4]: 6.25 µg/mL (≈ 14.5 µM)
- MIC [1, 5]: 1.56 µg/mL (≈ 3.62 µM)
- MIC [1, 6]: > 6.25 µg/mL

Structure (SMILES): COc1c(N2CCC(O)C(C)C2)c(F)c(N)c2c(=O)c(C(=O)O)cn(C3CC3)c12 (centres unmarked) [Compound 116, 5-Amino-1-cyclopropyl-6-fluoro-1,4-dihydro-8-methoxy-7-(4-hydroxy-3-methyl-1-piperidinyl)-4-oxo-quinoline-3-carboxylic acid]
- MIC [1, 4]: 0.4 µg/mL (≈ 0.987 µM)
- MIC [1, 5]: 0.025 µg/mL (≈ 0.0617 µM)
- MIC [1, 6]: 0.2 µg/mL (≈ 0.493 µM)

Structure (SMILES): Cc1c(N2CCC(N)C(C)(C)C2)c(F)cc2c(=O)c(C(=O)O)cn(C3CC3)c12 (centres unmarked) [Compound 94, 1-Cyclopropyl-6-fluoro-1,4-dihydro 8-methyl-7-(4-amino-3,3-dimethyl-1-piperidinyl)-4-oxo-quinoline-3-carboxylic acid]
- MIC [1, 6]: 0.05 µg/mL (≈ 0.129 µM)

Structure (SMILES): Cc1c(N2CC[C@@H](N)[C@H](C)C2)c(F)cc2c(=O)c(C(=O)O)cn(C3CC3)c12 (relative stereo) [Compound 89, trans-1-Cyclopropyl-6-fluoro-1,4-dihydro-8-methyl-7-(4-amino-3-methyl-1-piperidinyl)-4-oxo-quinoline-3-carboxylic acid]
- Cytotoxic concentration, J 744 Macrophage (J 744 (mouse macrophage)): 1000 µg/mL
- Cytotoxic concentration, V 79 CHL [2]: 250 µg/mL

Structure (SMILES): COc1c(N2CC(C)C(O)C(C)C2)c(F)c(N)c2c(=O)c(C(=O)O)cn(C3CC3)c12 (centres unmarked) [Compound 127, 5-Amino-1-cyclopropyl-6-fluoro-1,4-dihydro-8-methoxy-7-(4-hydroxy-3,5-dimethyl-1-piperidinyl)-4-oxo-quinoline-3-carboxylic acid]
- MIC [1, 4]: 0.4 µg/mL (≈ 0.954 µM)
- MIC [1, 5]: < 0.006 µg/mL
- MIC [1, 6]: 0.1 µg/mL (≈ 0.238 µM)

Structure (SMILES): Cc1c(N2CCC(N)C(C)(C)C2)c(F)cc2c(=O)c(C(=O)O)cn(C3CC3)c12 (racemic) [Compound 92, (±)-1-Cyclopropyl-6-fluoro-1,4-dihydro-8-methyl-7-(4-amino-3,3-dimethyl-1-piperidinyl)-4-oxo-quinoline-3-carboxylic acid]
- MIC, E. coli ATCC 25922 [1]: 0.05 µg/mL (≈ 0.129 µM)
- MIC, MSSA ATCC 25923 [1]: 0.025 µg/mL (≈ 0.0645 µM)
- Cytotoxic concentration, J 744 Macrophage (J 744 (mouse macrophage)): >1000 µg/mL
- Cytotoxic concentration, V 79 CHL [2]: >1000 µg/mL

Structure (SMILES): CCc1c(N2CCC(O)C(C)C2)c(F)cc2c(=O)c(C(=O)O)cn(C3CC3)c12 (mixture of isomers) [Compound 100, cis/trans-1-Cyclopropyl-6-fluoro-8-ethyl-7-(4-hydroxy-3-methyl-1-piperidinyl)-1,4-dihydro-4-oxo-quinoline-3-carboxylic acid]
- MIC, E. coli ATCC 25922 [1]: 0.8 µg/mL
- MIC, MSSA ATCC 25923 [1]: 0.1 µg/mL
- MIC, S. pneumoniae ATCC 49619 [1]: 0.8 µg/mL

Structure (SMILES): Cc1c(N2CC[C@H](N)[C@H](C)C2)c(F)cc2c(=O)c(C(=O)O)cn(C3CC3)c12 (relative stereo) [Compound 90, cis-1-Cyclopropyl-6-fluoro-1,4-dihydro-8-methyl-7-(4-amino-3-methyl-1-piperidinyl)-4-oxo-quinoline-3-carboxylic acid]
- Cytotoxic concentration, J 744 Macrophage (J 744 (mouse macrophage)): 1000 µg/mL
- Cytotoxic concentration, V 79 CHL [2]: 125 µg/mL

Structure (SMILES): Cc1c(N2CC[C@H](N)[C@H](C)C2)c(F)c(N)c2c(=O)c(C(=O)O)cn(C3CC3)c12 (relative stereo) [Compound 111, cis-1-5-Amino-1-cyclopropyl-6-fluoro-1,4-dihydro-8-methyl-7-(4-amino-3-methyl-1-piperidinyl)-4-oxo-quinoline-3-carboxylic acid]
- MIC, E. coli ATCC 25922 [1]: 1.56 µg/mL (≈ 4.02 µM)
- MIC, MSSA ATCC 25923 [1]: 0.8 µg/mL (≈ 2.06 µM)

Structure (SMILES): COc1c(N2CCC(NC(C)=O)C(C)(C)C2)c(F)c(N)c2c(=O)c(C(=O)O)cn(C3CC3)c12 (centres unmarked) [Compound 61, 5-Amino-1-cyclopropyl-6-fluoro-1,4-dihydro-8-methoxy-7-(4-acetylamino-3,3-dimethyl-1-piperidinyl)-4-oxo-quinoline-3-carboxylic acid]
- MIC [1, 4]: 0.4 µg/mL (≈ 0.869 µM)
- MIC [1, 5]: 0.05 µg/mL (≈ 0.109 µM)
- MIC [1, 6]: 0.2 µg/mL (≈ 0.434 µM)

Structure (SMILES): Cc1c(N2CCC(N)C(C)(C)C2)c(F)cc2c(=O)c(C(=O)O)cn(C3CC3)c12 (racemic) [Compound 91, (±)1-Cyclopropyl-6-fluoro-1,4-dihydro-8-methyl-7-(4-amino-3,3-dimethyl-1-piperidinyl)-4-oxo-quinoline-3-carboxylic acid]
- Cytotoxic concentration, J 744 Macrophage (J 744 (mouse macrophage)): 1000 µg/mL
- Cytotoxic concentration, V 79 CHL [2]: 750 µg/mL

Structure (SMILES): COc1c(N2CCC(N)C(C)(C)C2)c(F)cc2c(=O)c(C(=O)O)cn(-c3ccc(F)cc3F)c12 (centres unmarked) [Compound 17, 1-(2,4-Difluorophenyl)-6-fluoro-1,4-dihydro-8-methoxy-7-(4-amino-3,3-dimethyl-1-piperidinyl)-4-oxo-quinoline-3-carboxylic acid]
- MIC [1, 4]: 0.4 µg/mL (≈ 0.841 µM)
- MIC [1, 5]: 0.4 µg/mL (≈ 0.841 µM)
- MIC [1, 6]: 1.56 µg/mL (≈ 3.28 µM)

Structure (SMILES): N[C@@H]1[C@H]2CN(c3nc4c(cc3F)c(=O)c(C(=O)O)cn4-c3ccc(F)cc3F)C[C@@H]12 [Trovafloxacin, reference compound]
- Cytotoxic concentration, J 744 Macrophage (J 744 (mouse macrophage)): 500 µg/mL

Structure (SMILES): COc1c(N2CCC(O)C(C)(C)C2)c(F)c(N)c2c(=O)c(C(=O)O)cn(C3CC3)c12 (centres unmarked) [Compound 125, 5-Amino-1-cyclopropyl-6-fluoro-1,4-dihydro-8-methoxy-7-(4-hydroxy-3,3-dimethyl-1-piperidinyl)-4-oxo-quinoline-3-carboxylic acid]
- MIC [1, 4]: 1.56 µg/mL (≈ 3.72 µM)
- MIC [1, 5]: 0.025 µg/mL (≈ 0.0596 µM)
- MIC [1, 6]: 0.4 µg/mL (≈ 0.954 µM)

Structure (SMILES): Cc1c(N2CCC(O)CC2)c(F)cc2c(=O)c(C(=O)O)cn(C3CC3)c12 [Compound 83, 1-Cyclopropyl-6-fluoro-8-methyl-7-(4-hydroxy-1-piperidinyl)-1,4-dihydro-4-oxo-quinoline-3-carboxylic acid]
- MIC [1, 4]: 0.05 µg/mL (≈ 0.139 µM)
- MIC [1, 5]: 0.1 µg/mL (≈ 0.277 µM)

Structure (SMILES): CC[C@@H]1CN(c2c(F)cc3c(=O)c(C(=O)O)cn(C4CC4)c3c2C)CC[C@H]1O (relative stereo) [Compound 88, cis/trans-1-Cyclopropyl-6-fluoro-8-methyl-7-(4-hydroxy-3-ethyl-1-piperidinyl)-1,4-dihydro-4-oxo-quinoline-3-carboxylic acid]
- MIC, E. coli ATCC 25922 [1]: 0.4 µg/mL (≈ 1.03 µM)
- MIC, E. faecalis ATCC 29212 ([1]; E. faecalis ATCC 29212): 0.2 µg/mL (≈ 0.515 µM)
- MIC, MSSA ATCC 25923 [1]: 0.012 µg/mL (≈ 0.0309 µM)
- MIC, P. aeruginosa 27853 ([1]; P. aeruginosa 27853): 12.5 µg/mL (≈ 32.2 µM)
- MIC, S. pneumoniae ATCC 49619 [1]: 0.1 µg/mL (≈ 0.257 µM)
- MIC, S. sanguis ATCC 10556 ([1]; S. sanguis ATCC 10556 (Viridans Streptococci)): 0.2 µg/mL (≈ 0.515 µM)
- MIC, Cipro^R S. mitis 938 ([3]; Cipro^R S. mitis 938): 3.12 µg/mL (≈ 8.03 µM)
- MIC, Cipro^R S. sanguis 941 ([3]; Cipro^R S. sanguis 941): 3.12 µg/mL (≈ 8.03 µM)
- MIC, FQ^R S. pneumoniae 718 ([3]; FQ^R S. pneumoniae 718): 3.12 µg/mL (≈ 8.03 µM)
- MIC, MRSA 032 ([3]; MRSA 032): 0.8 µg/mL (≈ 2.06 µM)
